According to publication PMC9898036, “VIP152 is a selective CDK9 inhibitor with pre-clinical in vitro and in vivo efficacy in chronic lymphocytic leukemia” (Leukemia, 2022):

What was measured:
Test in all cases: DiscoverX KINOMEscan kinase profiling (468 assays)
Assay type in all cases: binding
[1] = molecular target: human kinome (Homo sapiens, UniProt P42336, Q546K); conditions: read-out: Percent Control
In short: (§1)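 VIP152 was run in DMSO, alongside a DMSO control. Readout was qPCR of DNA-tagged kinase still bound to bead-immobilized biotinylated kinase ligands after compound competition.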

[2] = molecular target: human kinome (Homo sapiens, UniProt P49759); conditions: CLK1; 100 nM; read-out: Percent Control
In short: as §1

[3] = molecular target: human kinome (Homo sapiens, UniProt P37173); conditions: kinase TGFBR2 (Entrez TGFBR2); compound concentration 1000 nM; read-out: Percent Control
In short: as §1

[4] = molecular target: human kinome (Homo sapiens, UniProt P07947); conditions: kinase YES (Entrez YES1); compound concentration 1000 nM; read-out: Percent Control
In short: as §1

[5] = molecular target: human kinome (Homo sapiens, UniProt P42336, E545A); conditions: read-out: Percent Control
human kinome (Homo sapiens, UniProt P42336, E545A), sequence (P42336 whole entry E545A): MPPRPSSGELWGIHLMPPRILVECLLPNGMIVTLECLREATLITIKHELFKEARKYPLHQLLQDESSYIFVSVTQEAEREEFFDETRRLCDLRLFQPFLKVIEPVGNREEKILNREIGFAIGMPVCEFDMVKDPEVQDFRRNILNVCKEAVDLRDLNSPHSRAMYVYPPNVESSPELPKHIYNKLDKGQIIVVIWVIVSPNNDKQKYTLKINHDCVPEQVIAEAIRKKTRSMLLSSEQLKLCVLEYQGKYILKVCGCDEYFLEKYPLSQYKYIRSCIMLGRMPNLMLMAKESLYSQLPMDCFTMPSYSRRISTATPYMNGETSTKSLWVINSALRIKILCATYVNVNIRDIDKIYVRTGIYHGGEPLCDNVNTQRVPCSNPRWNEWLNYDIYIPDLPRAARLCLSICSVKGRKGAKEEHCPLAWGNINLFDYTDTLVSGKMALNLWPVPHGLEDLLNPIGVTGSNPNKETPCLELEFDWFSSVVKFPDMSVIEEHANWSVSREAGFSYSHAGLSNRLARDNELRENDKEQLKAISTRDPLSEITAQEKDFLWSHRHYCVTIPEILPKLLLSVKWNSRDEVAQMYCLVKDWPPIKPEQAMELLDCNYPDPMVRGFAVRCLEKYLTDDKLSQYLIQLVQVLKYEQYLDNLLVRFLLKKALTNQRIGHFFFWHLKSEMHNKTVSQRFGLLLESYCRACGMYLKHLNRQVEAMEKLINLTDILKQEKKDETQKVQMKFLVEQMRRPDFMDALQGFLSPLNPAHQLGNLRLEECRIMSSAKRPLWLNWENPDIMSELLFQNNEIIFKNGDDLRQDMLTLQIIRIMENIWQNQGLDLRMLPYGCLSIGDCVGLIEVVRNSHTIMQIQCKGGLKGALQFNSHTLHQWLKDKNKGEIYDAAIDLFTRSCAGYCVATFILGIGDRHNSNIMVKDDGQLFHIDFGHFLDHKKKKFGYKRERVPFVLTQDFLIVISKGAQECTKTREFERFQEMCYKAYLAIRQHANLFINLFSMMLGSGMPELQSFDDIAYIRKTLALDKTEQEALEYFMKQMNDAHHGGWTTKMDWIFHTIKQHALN
In short: as §1

[6] = molecular target: human kinome (Homo sapiens, UniProt P51957); conditions: read-out: Percent Control
human kinome (Homo sapiens, UniProt P51957), sequence (P51957 whole entry): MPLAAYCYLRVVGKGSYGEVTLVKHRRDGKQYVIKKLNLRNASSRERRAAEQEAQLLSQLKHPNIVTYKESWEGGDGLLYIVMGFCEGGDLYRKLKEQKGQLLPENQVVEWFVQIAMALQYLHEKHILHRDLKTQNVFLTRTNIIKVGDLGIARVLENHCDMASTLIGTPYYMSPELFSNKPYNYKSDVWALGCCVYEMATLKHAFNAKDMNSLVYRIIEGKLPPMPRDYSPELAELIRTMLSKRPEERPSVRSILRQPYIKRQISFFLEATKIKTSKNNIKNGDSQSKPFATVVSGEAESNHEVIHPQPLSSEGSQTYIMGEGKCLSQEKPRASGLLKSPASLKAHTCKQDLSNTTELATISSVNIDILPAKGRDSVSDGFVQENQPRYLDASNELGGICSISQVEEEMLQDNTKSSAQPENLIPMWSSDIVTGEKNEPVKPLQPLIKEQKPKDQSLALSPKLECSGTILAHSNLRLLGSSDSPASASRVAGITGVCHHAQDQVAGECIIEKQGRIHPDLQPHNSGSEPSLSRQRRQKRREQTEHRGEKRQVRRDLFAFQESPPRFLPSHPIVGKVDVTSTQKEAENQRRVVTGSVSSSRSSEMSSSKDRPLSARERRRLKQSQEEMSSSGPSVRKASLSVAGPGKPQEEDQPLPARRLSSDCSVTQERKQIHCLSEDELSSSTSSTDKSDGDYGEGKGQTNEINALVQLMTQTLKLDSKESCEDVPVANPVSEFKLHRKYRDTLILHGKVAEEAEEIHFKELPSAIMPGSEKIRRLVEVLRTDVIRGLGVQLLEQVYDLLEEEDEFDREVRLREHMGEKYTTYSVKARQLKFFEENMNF
In short: as §1

[7] = molecular target: human kinome (Homo sapiens, UniProt P19525); conditions: read-out: Percent Control
In short: as §1

[8] = molecular target: human kinome (Homo sapiens, UniProt P24723); conditions: read-out: Percent Control
human kinome (Homo sapiens, UniProt P24723), sequence (P24723 whole entry): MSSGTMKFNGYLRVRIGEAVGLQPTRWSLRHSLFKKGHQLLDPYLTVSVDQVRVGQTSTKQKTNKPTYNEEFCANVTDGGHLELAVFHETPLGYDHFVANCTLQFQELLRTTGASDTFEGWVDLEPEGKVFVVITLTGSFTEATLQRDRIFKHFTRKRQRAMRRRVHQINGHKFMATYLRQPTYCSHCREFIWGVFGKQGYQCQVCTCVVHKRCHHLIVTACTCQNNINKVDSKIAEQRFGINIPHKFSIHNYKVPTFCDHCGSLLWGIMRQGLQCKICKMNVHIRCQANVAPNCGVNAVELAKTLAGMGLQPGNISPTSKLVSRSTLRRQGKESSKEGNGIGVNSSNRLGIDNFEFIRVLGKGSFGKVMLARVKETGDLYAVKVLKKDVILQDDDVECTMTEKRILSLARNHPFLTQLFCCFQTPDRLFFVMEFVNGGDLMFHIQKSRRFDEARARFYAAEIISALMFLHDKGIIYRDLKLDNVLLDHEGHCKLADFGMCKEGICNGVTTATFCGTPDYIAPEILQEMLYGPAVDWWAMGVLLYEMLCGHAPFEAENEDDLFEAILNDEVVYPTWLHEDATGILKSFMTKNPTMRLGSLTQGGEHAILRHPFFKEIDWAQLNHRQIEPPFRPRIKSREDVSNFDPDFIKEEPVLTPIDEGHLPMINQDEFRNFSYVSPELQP
In short: as §1

[9] = molecular target: human kinome (Homo sapiens, UniProt P10721, V559D); conditions: KIT(V559D); 100 nM; read-out: Percent Control
In short: as §1

[10] = molecular target: human kinome (Homo sapiens, UniProt Q9HBH9); conditions: MKNK2; 100 nM; read-out: Percent Control
In short: as §1

[11] = molecular target: human kinome (Homo sapiens, UniProt P53671); conditions: LIMK2; 100 nM; read-out: Percent Control
In short: as §1

[12] = molecular target: human kinome (Homo sapiens, UniProt P36888, D835V); conditions: FLT3(D835V); 100 nM; read-out: Percent Control
In short: as §1

[13] = molecular target: human kinome (Homo sapiens, UniProt Q8NEV4); conditions: read-out: Percent Control
human kinome (Homo sapiens, UniProt Q8NEV4), sequence (Q8NEV4 whole entry): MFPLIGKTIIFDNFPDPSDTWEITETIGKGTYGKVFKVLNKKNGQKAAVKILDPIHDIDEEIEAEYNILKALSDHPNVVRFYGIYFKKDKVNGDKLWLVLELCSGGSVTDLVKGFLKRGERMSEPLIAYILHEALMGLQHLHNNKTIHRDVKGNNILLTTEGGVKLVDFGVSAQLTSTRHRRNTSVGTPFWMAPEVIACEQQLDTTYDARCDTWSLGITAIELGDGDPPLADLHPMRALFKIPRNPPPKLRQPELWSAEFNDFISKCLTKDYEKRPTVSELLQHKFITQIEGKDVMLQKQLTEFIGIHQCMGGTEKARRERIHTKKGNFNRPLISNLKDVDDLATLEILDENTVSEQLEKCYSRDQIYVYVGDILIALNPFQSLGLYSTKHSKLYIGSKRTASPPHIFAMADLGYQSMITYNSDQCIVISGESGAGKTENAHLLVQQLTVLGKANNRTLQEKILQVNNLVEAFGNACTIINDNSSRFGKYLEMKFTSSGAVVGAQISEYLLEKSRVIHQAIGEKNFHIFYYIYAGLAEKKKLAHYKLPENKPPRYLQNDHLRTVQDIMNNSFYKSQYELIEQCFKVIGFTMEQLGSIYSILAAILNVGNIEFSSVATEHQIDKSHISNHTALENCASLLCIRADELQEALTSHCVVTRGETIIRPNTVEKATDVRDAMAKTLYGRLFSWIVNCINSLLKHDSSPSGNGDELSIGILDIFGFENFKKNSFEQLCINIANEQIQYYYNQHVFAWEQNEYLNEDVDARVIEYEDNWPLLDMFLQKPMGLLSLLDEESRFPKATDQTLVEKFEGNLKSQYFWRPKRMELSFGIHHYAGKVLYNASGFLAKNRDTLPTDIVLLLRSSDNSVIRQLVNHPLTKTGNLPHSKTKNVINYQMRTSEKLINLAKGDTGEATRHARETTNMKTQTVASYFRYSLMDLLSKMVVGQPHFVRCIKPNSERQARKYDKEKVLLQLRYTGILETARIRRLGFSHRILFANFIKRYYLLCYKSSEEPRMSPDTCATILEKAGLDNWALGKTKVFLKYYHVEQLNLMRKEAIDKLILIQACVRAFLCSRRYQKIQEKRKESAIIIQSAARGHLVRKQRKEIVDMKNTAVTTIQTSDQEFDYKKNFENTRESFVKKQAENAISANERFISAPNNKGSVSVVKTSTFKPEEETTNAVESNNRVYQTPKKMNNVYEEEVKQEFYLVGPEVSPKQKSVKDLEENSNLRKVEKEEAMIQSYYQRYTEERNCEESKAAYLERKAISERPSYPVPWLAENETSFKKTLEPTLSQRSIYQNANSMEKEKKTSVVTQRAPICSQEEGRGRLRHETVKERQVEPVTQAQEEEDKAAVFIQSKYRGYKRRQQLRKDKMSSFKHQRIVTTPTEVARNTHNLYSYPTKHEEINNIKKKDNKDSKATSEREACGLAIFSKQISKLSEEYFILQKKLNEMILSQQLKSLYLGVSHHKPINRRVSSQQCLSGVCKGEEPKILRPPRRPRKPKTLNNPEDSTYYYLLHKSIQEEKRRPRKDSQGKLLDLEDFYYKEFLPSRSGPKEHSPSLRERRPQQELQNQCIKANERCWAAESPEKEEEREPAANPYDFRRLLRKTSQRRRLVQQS
In short: as §1

[14] = molecular target: human kinome (Homo sapiens, UniProt Q9P286); conditions: read-out: Percent Control
human kinome (Homo sapiens, UniProt Q9P286), sequence (Q9P286 whole entry): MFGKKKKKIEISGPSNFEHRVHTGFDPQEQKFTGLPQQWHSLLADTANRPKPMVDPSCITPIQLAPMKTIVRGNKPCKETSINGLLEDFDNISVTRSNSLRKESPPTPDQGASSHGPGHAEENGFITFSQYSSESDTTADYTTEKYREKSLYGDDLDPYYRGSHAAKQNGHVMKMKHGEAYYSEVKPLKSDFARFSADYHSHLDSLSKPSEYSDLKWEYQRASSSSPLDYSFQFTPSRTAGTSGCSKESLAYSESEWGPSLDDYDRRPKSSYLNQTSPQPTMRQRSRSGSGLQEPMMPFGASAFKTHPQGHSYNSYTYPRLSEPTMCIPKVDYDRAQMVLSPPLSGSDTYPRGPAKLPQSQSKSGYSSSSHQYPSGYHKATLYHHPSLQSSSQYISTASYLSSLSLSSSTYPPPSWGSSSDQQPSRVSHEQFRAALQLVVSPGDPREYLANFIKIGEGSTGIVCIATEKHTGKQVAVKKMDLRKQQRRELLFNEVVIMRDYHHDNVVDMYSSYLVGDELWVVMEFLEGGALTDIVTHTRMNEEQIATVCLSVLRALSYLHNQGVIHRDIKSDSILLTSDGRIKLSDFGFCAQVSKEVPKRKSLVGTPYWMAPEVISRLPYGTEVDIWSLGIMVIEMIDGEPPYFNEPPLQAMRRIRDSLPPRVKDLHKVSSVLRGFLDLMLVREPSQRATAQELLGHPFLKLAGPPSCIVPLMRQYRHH
In short: as §1

[15] = molecular target: human kinome (Homo sapiens, UniProt P30291); conditions: kinase WEE1 (Entrez WEE1); compound concentration 1000 nM; read-out: Percent Control
In short: as §1

[16] = molecular target: human kinome (Homo sapiens, UniProt P42336, C420R); conditions: read-out: Percent Control
human kinome (Homo sapiens, UniProt P42336, C420R), sequence (P42336 whole entry C420R): as the sequence (P42336 whole entry E545A) above, with C420R, A545E counted along it
In short: as §1

[17] = molecular target: human kinome (Homo sapiens, UniProt Q9Y3S1); conditions: kinase WNK2 (Entrez WNK2); compound concentration 1000 nM; read-out: Percent Control
In short: as §1

[18] = molecular target: human kinome (Homo sapiens, UniProt P49336); conditions: CDK8; 100 nM; read-out: Percent Control
In short: as §1

[19] = molecular target: human kinome (Homo sapiens, UniProt P54756); conditions: EPHA5; 100 nM; read-out: Percent Control
In short: as §1

[20] = molecular target: human kinome (Homo sapiens, UniProt Q13523); conditions: read-out: Percent Control
In short: as §1

[21] = molecular target: human kinome (Homo sapiens, UniProt P36896); conditions: ACVR1B; 100 nM; read-out: Percent Control
In short: as §1

[22] = molecular target: human kinome (Homo sapiens, UniProt Q9BXA7); conditions: kinase TSSK1B (Entrez TSSK1B); compound concentration 1000 nM; read-out: Percent Control
In short: as §1

[23] = molecular target: human kinome (Homo sapiens, UniProt P42684); conditions: ABL2; 100 nM; read-out: Percent Control
In short: as §1

[24] = molecular target: human kinome (Homo sapiens, UniProt O43353); conditions: kinase RIPK2 (Entrez RIPK2); compound concentration 1000 nM; read-out: Percent Control
In short: as §1

[25] = molecular target: human kinome (Homo sapiens, UniProt P49841); conditions: GSK3B; 100 nM; read-out: Percent Control
In short: as §1

[26] = molecular target: human kinome (Homo sapiens, UniProt Q9H2K8); conditions: kinase TAOK3 (Entrez TAOK3); compound concentration 1000 nM; read-out: Percent Control
In short: as §1

[27] = molecular target: human kinome (Homo sapiens, UniProt Q13470); conditions: kinase TNK1 (Entrez TNK1); compound concentration 1000 nM; read-out: Percent Control
In short: as §1

[28] = molecular target: human kinome (Homo sapiens, UniProt Q8TDX7); conditions: read-out: Percent Control
In short: as §1

[29] = molecular target: human kinome (Homo sapiens, UniProt Q13555); conditions: CAMK2G; 100 nM; read-out: Percent Control
In short: as §1

human kinome (Homo sapiens, UniProt P42336, Q546K), sequence (P42336 whole entry Q546K): as the sequence (P42336 whole entry E545A) above, with A545E, Q546K counted along it

SMILES: COc1cc(F)ccc1-c1cc(Nc2cc(CS(C)(=N)=O)ccn2)ncc1F (stereo not drawn) [VIP152]
- remaining binding at 0.1 µM ([1]; PIK3CA(Q546K), 100 nM): 100%
- remaining binding at 1 µM ([1]; kinase PIK3CA(Q546K) (Entrez PIK3CA), compound concentration 1000 nM): 96%
- remaining binding at 0.1 µM [2]: 92%
- remaining binding at 1 µM [3]: 93%
- remaining binding at 1 µM [4]: 86%
- remaining binding at 0.1 µM ([5]; PIK3CA(E545A), 100 nM): 71%
- remaining binding at 1 µM ([5]; kinase PIK3CA(E545A) (Entrez PIK3CA), compound concentration 1000 nM): 98%
- remaining binding at 0.1 µM ([6]; NEK4, 100 nM): 100%
- remaining binding at 1 µM ([6]; kinase NEK4 (Entrez NEK4), compound concentration 1000 nM): 100%
- remaining binding at 0.1 µM ([7]; PRKR (Entrez EIF2AK2), 100 nM): 100%
- remaining binding at 1 µM ([7]; kinase PRKR (Entrez EIF2AK2), compound concentration 1000 nM): 100%
- remaining binding at 0.1 µM ([8]; PRKCH, 100 nM): 100%
- remaining binding at 1 µM ([8]; kinase PRKCH (Entrez PRKCH), compound concentration 1000 nM): 94%
- remaining binding at 0.1 µM [9]: 100%
- remaining binding at 0.1 µM [10]: 95%
- remaining binding at 0.1 µM [11]: 100%
- remaining binding at 0.1 µM [12]: 100%
- remaining binding at 0.1 µM ([13]; MYO3A, 100 nM): 100%
- remaining binding at 1 µM ([13]; kinase MYO3A (Entrez MYO3A), compound concentration 1000 nM): 90%
- remaining binding at 0.1 µM ([14]; PAK7, 100 nM): 100%
- remaining binding at 1 µM ([14]; kinase PAK7 (Entrez PAK7), compound concentration 1000 nM): 78%
- remaining binding at 1 µM [15]: 86%
- remaining binding at 0.1 µM ([16]; PIK3CA(C420R), 100 nM): 98%
- remaining binding at 1 µM ([16]; kinase PIK3CA(C420R) (Entrez PIK3CA), compound concentration 1000 nM): 92%
- remaining binding at 1 µM [17]: 85%
- remaining binding at 0.1 µM [18]: 100%
- remaining binding at 0.1 µM [19]: 100%
- remaining binding at 0.1 µM ([20]; PRP4 (Entrez PRPF4B), 100 nM): 87%
- remaining binding at 1 µM ([20]; kinase PRP4 (Entrez PRPF4B), compound concentration 1000 nM): 71%
- remaining binding at 0.1 µM [21]: 100%
- remaining binding at 1 µM [22]: 92%
- remaining binding at 0.1 µM [23]: 100%
- remaining binding at 1 µM [24]: 49%
- remaining binding at 0.1 µM [25]: 72%
- remaining binding at 1 µM [26]: 57%
- remaining binding at 1 µM [27]: 82%
- remaining binding at 0.1 µM ([28]; NEK7, 100 nM): 100%
- remaining binding at 1 µM ([28]; kinase NEK7 (Entrez NEK7), compound concentration 1000 nM): 94%
- remaining binding at 0.1 µM [29]: 100%
